Measurements: PMC10050424, “Structural basis of the substrate recognition and inhibition mechanism of Plasmodium falciparum nucleoside transporter PfENT1” (Nature Communications, 2023)
Values joined by “and” are separate entries in the source; they are usually repeats but may differ in a detail not shown here. Equal values may be shown once.

Columns and labels:
[1] = molecular target: T1, PfENT1 (Plasmodium falciparum, UniProt Q8IDM6); experiment: cell-based; type: cell-based; conditions: uptake without competitor set as 100%, Fig. 1c; for remaining activity at 5000 µM: 0.5 h, read-out: Uptake of [3H]-inosine (Percentage of PfENT1 WT), competition by nonradioactive nucleoside/nucleobase 5 mM, 30 min, 30 °C; for Uptake of [3H]-inosine (Percentage of PfENT1 WT): competition by nonradioactive nucleoside/nucleobase 5 mM, 30 min, 30 °C
T1 construct: expressed in transfected cells; host or cells: S. cerevisiae BY4741, FUI1 deleted, PfENT1 knock-in under the TEF1 promoter
Method: The S. cerevisiae strain (ATCC, #201388) BY4741 (MATa his3Δ1 leu2Δ0 met15Δ0 ura3Δ0) was used as the starting yeast strain. Yeast strains were cultured in YPD medium (20 g/L peptone, 10 g/L yeast extract, and 20 g/L dextrose). The antibiotic G418 was supplemented at a concentration of 250 μg/mL to select strains carrying the KanMX marker. E. coli DH5α was used for subcloning.
Codon-optimized PfENT1 (for expression in yeast) was synthesized by Sangon Biotech. The carboxyl terminus of PfENT1 was HA-tagged through PCR. The TEF1p promoter and PGK1t terminator were amplified from BY4741 genomic DNA. Overlap PCR was applied to generate the gene overexpression cassette of PfENT1 (TEF1p promoter-PfENT1-PGK1t terminator). The two 600-bp homologous arms corresponding to the upstream and downstream regions of the FUI1 gene were amplified from BY4741 genomic DNA. The gene cassette of the ‘TEF1p promoter-PfENT1-PGK1t terminator’ together with the two homologous arms was cloned into the PUC19 plasmid through Gibson assembly, generating the final plasmid PUC19: PfENT1. PfENT1 mutations were generated using point mutation and verified by Sanger sequencing. The spacer targeting the FUI1 gene (5ʹ-[…]-3ʹ) was cloned into the pCas-BsaI plasmid to generate the pCas-FUI1 plasmid as described previously.
To obtain fui1Δ and PfENT1 (or its mutations) overexpression in the S. cerevisiae strain, 1 μg pCas-FUI1 plasmid and 15 μg PUC19:PfENT1 were transformed into yeast using the LiAc/ssDNA/PEG method. Then, the strains were plated on a YPD plate supplemented with G418. Clones were screened using PCR and finally verified through Sanger sequencing.
Cells were grown overnight in YPD medium to mid-log phase and harvested by centrifugation at 3000 × g for 5 min. Cells were washed three times in 2% glucose. The yeast pellets were resuspended in uptake assay buffer (25 mM Tris-HCl 8.0,150 mM NaCl, 2% glucose) to a final concentration of 2 × 10^8 cells mL^–1. The uptake assay was initiated by combining 100 μL of prewarmed (30 °C) cells and 100 μL uptake assay buffer mixture: 25 mM Tris-HCl 8.0, 150 mM NaCl, 2% glucose, 200 nM [^3H] Inosine ([8-^3H] inosine; 20 Ci mmol^–1, American Radiolabeled Chemicals). Cells were removed onto a membrane filter at the appropriate times to generate the time course. After washing by vacuum filtration with 2 ml ice-cold 2% glucose, the radioactivity retained on the filter was incubated with 1 mL of ULTIMA GOLD scintillation fluid (Perkin Elmer, 77-15311). Counts were measured using a liquid scintillation analyzer (Perkin Elmer, Tri-Carb 5110TR).
For competition assays, the indicated nucleosides and nucleobase were added into the external uptake assay buffer (25 mM Tris-HCl 8.0, 150 mM NaCl, and 2% glucose) to a final concentration of 5 mM, and the transport reaction was stopped at 30 min. The reading of the competition assays was normalized against the one without a competitor, which had the uptake of radiolabeled inosine set as 100%. All uptake assays were performed at 30 °C and repeated three times. Error bars represent the s.d. The final result was analyzed in the GraphPad Prism 8 software ([…]).

[2] = molecular target: T2, PfENT1WT (Plasmodium falciparum, UniProt Q8IDM6); experiment: biochemical; type: binding
T2 construct: 10xHis (N); made in house; host or cells: Sf9 insect cells (baculovirus)
Method: For the in vitro binding assay, Sf9 cells were solubilized in lysis buffer containing 2% (w/v) n-dodecyl-β-D-maltopyranoside (DDM, Anatrace) and protease inhibitor cocktail (0.8 μM aprotinin, 2 μM pepstatin, and 5 μg/ml leupeptin) at 4 °C for 2 h. The soluble supernatant was collected via centrifugation and incubated with Ni-NTA resin (QIAGEN) at 4 °C for 1 h. The resin was washed and eluted using lysis buffer containing 0.05% (w/v) DDM and 30 mM/300 mM imidazole. The protein was further purified by size-exclusion chromatography (Superdex 200 Increase 10/300; GE Healthcare) in buffer containing 25 mM MES (pH 6.0), 150 mM NaCl, and 0.05% (w/v) DDM. The peak fractions were pooled and concentrated to 10~50 μM for the nucleoside-binding assay.
The binding affinity between wild-type and mutant PfENT1 with nucleosides and GSK4 was measured using a Micro-Cal ITC200 (Malvern). All proteins were prepared in 25 mM MES (pH 6.0), 150 mM NaCl, and 0.05% (w/v) DDM. Nucleosides (5~10 mM) and GSK4 (100-200 μM) dissolved in the same buffer were titrated against 20–50 μM PfENT1 proteins at 25 °C. PEAQ-ITC analysis software (MicroCal) was employed to analyze the data. All titrations were repeated three times.

[3] = ITC, 25 °C, pH 6.0, mean ± SD (n = 3), Fig. 1a and text

T2 sequence (Q8IDM6 whole entry): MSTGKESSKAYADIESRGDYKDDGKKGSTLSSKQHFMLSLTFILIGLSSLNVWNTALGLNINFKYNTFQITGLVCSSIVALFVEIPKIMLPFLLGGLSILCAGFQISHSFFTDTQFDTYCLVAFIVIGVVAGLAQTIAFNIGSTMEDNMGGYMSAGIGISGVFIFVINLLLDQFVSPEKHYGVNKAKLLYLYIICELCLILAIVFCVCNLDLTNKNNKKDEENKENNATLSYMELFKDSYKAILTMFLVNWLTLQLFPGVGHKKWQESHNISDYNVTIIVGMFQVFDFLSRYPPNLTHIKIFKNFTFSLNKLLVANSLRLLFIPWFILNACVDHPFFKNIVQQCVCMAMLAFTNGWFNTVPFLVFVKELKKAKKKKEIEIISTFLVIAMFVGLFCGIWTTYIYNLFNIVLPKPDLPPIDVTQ
T1 sequence (Q8IDM6 whole entry): as above

SMILES | remaining activity at 5000 µM [1] | Uptake of [3H]-inosine (Percentage of PfENT1 WT) [1] | binding affinity (Kd) [2, 3] | Kd ([2]; Kd, Mean and Mean ± SD, source data Figure 1a) | Kd ([2]; Kd, N=3 (individual experiments), source data Figure 1a) | Kd ([2]; binding affinity (Kd), ITC, 25 °C, pH 6.0, mean ± SD (n = 3), Fig. 1a and text) | Uptake of [3H]-inosine (Percentage of PfENT1 WT) ([1]; listed as thymidine)
Nc1ncnc2c1ncn2[C@@H]1O[C@H](CO)[C@@H](O)[C@H]1O [Adenosine, adenosine] | 18% | relatively lower than that of inosine and guanosine |  |  |  |  | 
Nc1ccn([C@@H]2O[C@H](CO)[C@@H](O)[C@H]2O)c(=O)n1 [Cytidine, cytidine] |  | did not influence inosine uptake | undetectable |  |  |  | 
Nc1nc2c(ncn2[C@@H]2O[C@H](CO)[C@@H](O)[C@H]2O)c(=O)[nH]1 [Guanosine, guanosine] | 10% | abolished |  | 186 µM | 172 µM and 179 µM and 207 µM | ~186 µM and 186 µM | 
O=c1[nH]cnc2nc[nH]c12 [Hypoxanthine, hypoxanthine] | 23% | partial inhibition | undetectable |  |  |  | 
Cc1cn([C@H]2C[C@H](O)[C@@H](CO)O2)c(=O)[nH]c1=O [Thymidine, thymidine] | 42% | 41% | undetectable |  |  |  | partially reduce inosine uptake
O=c1ccn([C@@H]2O[C@H](CO)[C@@H](O)[C@H]2O)c(=O)[nH]1 [Uridine, uridine] | 81% | partially reduce inosine uptake | undetectable |  |  |  | 
